This experiment concerns the target T1, NLRP3 (Homo sapiens, UniProt Q96P20).
T1 construct: purified human GST-NLRP3
Briefly: microscale thermophoresis with purified GST-NLRP3; also biotin-Eri pull-down and ATPase inhibition. The experiment is classed as binding. A general note: Microscale thermophoresis detects binding through changes in fluorescence in a small temperature gradient.

SMILES strings stand for the structures.

T1 sequence (Q96P20 whole entry): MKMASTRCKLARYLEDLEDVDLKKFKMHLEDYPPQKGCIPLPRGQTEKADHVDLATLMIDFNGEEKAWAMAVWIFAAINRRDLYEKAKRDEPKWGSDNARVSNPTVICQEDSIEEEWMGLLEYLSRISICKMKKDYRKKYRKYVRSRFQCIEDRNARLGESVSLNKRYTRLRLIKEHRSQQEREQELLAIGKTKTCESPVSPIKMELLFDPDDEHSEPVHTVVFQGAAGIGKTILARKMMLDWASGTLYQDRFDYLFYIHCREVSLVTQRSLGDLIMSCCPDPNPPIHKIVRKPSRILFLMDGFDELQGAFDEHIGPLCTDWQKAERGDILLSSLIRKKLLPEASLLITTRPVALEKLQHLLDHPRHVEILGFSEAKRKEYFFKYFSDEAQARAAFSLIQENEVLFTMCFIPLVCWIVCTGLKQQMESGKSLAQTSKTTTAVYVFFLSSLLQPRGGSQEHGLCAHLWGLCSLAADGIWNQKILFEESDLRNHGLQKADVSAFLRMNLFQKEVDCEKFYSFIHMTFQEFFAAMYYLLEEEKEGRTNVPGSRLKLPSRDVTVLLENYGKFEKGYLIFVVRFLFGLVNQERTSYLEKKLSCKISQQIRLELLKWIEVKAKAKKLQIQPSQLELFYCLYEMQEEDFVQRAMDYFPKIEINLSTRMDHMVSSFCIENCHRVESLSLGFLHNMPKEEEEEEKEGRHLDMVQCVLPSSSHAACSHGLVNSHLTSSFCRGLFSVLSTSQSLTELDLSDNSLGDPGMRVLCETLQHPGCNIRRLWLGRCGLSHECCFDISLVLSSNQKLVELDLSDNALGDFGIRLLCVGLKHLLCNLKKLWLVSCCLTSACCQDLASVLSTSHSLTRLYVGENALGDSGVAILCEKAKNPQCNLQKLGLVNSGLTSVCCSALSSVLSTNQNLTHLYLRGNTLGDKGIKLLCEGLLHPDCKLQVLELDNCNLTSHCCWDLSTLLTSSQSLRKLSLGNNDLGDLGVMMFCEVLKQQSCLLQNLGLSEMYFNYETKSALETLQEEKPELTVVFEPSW

`COc1ccc(CCc2cc(OC)c(OC)c(OC)c2)cc1O` [Eri, Erianin] displayed a Kd of approximately 50 nM.

A word on the Kd: it is the constant that tells how readily two partners part at equilibrium.

For the origin of these results see publication PMC8564113, “Erianin: A Direct NLRP3 Inhibitor With Remarkable Anti-Inflammatory Activity” (Frontiers in Immunology, 2021).
